Measurements published in patent EP0220873B1, “Fused bicyclic imides with psychotropic activity” (priority 1985, dated 1987).
Where a name gives a salt, the structure may show the parent alone.

Columns and labels:
[1] = test system: avoidance responding; experiment: conditioned avoidance (discrete trial) test; type: in vivo, Male CD rats; conditions: for ED50: Rattus norvegicus
Method: The antipsychotic activity of the compounds of the invention is assessed via the conditioned avoidance (discrete trial) test. This test has excellent clinical correlation for antipsychotic activity.
The test is carried out as follows: Male CD rats (Charles River) maintained at approximately 400-450 gm body weight are used. Rats trained previously are placed in plexiglass experimental chambers equipped with a response lever, house light, and sonalert. A steel grid floor is wired for presentation of electric shock. Each trial consists of a fifteen-second warning tone (conditioned stimulus), continuing for an additional fifteen seconds accompanied by electric shock, (unconditioned stimulus). The rat can terminate a trial at any point by depression of the response lever. As response during the initial fifteen-second warning tone ends the trial before shock delivery and is considered avoidance response, while a response occurring during shock delivery is an escape response. Trials are presented on a variable interval schedule of two minutes. The session consists of sixty trials. Animals are run two to three times weekly with control sessions always preceding a drug run, and with at least one day intervening, compounds are administered i.p. or p.o. at appropriate pre-treatment times to a minimum of five to six rats at each dose level over a range of doses.
(§1) Response counts are summed over all subjects at a given dose. […] This number is expressed as a percentage of the total trials. Control performance is arbitrarily assigned a value of 100% for avoidance and the dose calculated to produce a 50% block in avoidance responding (AB₅₀) is obtained from a dose-effect regression line fitted by the method of least squares. Potential antipsychotic compounds suppress avoidance responding and increase escape responding.

[2] = test system: avoidance responding; experiment: conditioned avoidance (shelf-jump response) test; type: in vivo, Male CD rats; conditions: for Active at mg/kg: i.p.
Method: Another test designed to determine the potential antipsychotic activity of the compounds of the invention is the conditioned avoidance (shelf-jump response) test.
This test is carried out as follows: Male CD rats (Charles River) maintained at approximately 400-450 gm body weight are used. Previously trained rats are placed in plexiglass experimental chambers divided into two sections; a main chamber (10 1/2" x 6 3/4" x 11 7/8" high) and an elevated chamber or shelf (5 7/8" x 6 7/8" x 5 3/4"). A moveable wall, controlled by a motor, determines whether the rat has access to the shelf at any time during the experiment. The experimental chamber also contains a house light and sonalert. A steel grid floor in the main chamber is wired for presentation of electric shock. Each trial consists of a fifteen-second warning tone (conditioned stimulus), continuing for an additional fifteen seconds accompanied by electric shock, (unconditioned stimulus). A response (jumping onto the exposed shelf of the upper chamber) occurring during the initial fifteen-second warning tone is considered an avoidance response, while a response occurring during shock delivery is considered an escape response. Trials are presented on a fixed interval schedule of one minute. The session consists of thirty-six trials. Animals are run twice weekly with control sessions always preceding a drug run, and with at least one day intervening. Compounds are administered i.p. or p.o. at appropriate pre-treatment times to a minimum of five rats at each dose level over a range of doses.
The following experimental parameters are recorded by computer: (1) the number of avoidance responses, (2) the number of escape responses, and (3) the number of trials in which no response occurred.
as §1

[3] = target: T1, limbic D-2 dopamine receptor (Rattus norvegicus, UniProt P61169); experiment: biochemical; type: binding, rats; conditions: for Ki: Table 1, 0.3 nM 3H-spiroperidol, rat limbic brain tissue, read-out: Limbic D-2 Binding (KinM); for inhibition at 1 µM: read-out: Limbic D-2 Binding, % inhibition at 1 µM
T1 construct: Limbic brain tissue (nucleus accumbens, septal area, olfactory tubercle) is dissected; from tissue; host or cells: rat limbic brain tissue (nucleus accumbens, septal area, olfactory tubercle) homogenate

[4] = ip, standard compounds, dose producing 50% block in avoidance responding, read-out: AB50 (the source's name)

T1 sequence (P61169 whole entry): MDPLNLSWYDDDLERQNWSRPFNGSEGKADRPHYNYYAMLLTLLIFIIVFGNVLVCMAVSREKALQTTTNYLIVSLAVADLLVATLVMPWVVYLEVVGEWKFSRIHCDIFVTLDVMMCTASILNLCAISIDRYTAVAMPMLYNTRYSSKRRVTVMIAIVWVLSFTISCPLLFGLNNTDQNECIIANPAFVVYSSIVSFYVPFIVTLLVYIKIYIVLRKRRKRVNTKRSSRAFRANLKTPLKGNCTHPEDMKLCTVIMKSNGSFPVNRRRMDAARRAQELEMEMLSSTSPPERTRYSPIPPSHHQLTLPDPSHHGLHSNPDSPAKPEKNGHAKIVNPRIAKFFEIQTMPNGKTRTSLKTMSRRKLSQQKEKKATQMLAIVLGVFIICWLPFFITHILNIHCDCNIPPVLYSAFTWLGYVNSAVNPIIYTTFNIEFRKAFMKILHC

| Compound | Active at mg/kg [2] | further results |
| --- | --- | --- |
| 2-[4-[4-(2-Pyrimidinyl)-1-piperazinyl]butyl]octahydro-4,7ethano-1H-cyclobut[f]isoindole-1,3-(2H)-dione, dihydrochloride, sesquihydrate [Example 6] | 40 (i.p.) mg/kg | Active at mg/kg ([1]; p.o., active dose, no AB50): 40 (p.o.) mg/kg |
| O=C1CC2(CCCC2)CC(=O)N1CCCCN1CCN(c2ncccn2)CC1 [Buspirone, 8-[4-[4-(2-pyrimidinyl)-1-piperazinyl]butyl]-8-azaspiro[4.5]decane-7,9-dione, reference compound] |  | ED50 ([2]; Rattus norvegicus, ip, standard compounds, read-out: AB50 (the source's name)): 9.94 mg/kg |
| O=C1C2C3C=CC(C4CC34)C2C(=O)N1CCCCN1CCN(c2ncccn2)CC1 (centres unmarked) [Example 2, 4,4a,5,5a,6,6a-Hexahydro-2-[4-[4-(2-pyrimidinyl)-1-piperazinyl]butyl]-4,6-ethenocycloprop[f]isoindole-1,3-(2H,3aH)-dione,dihydrochloride, hydrate] | 40 (i.p.) mg/kg |  |
| O=C1C2C3C=CC(C4C=CC43)C2C(=O)N1CCCCN1CCN(c2cncc(Cl)n2)CC1 (centres unmarked) [Example 4, 3a,4,4a,6a,7,7a-Hexahydro-2-[4-[4-(6-chloro-2-pyrazinyl)-1-piperazinyl]butyl]-4,7-etheno-1H-cyclobut[f]isoindole-1,3(2H)-dione, dihydrochloride, sesquihydrate] | 40 (i.p.) mg/kg |  |
| O=C1C2C3CCC(C4CCC43)C2C(=O)N1CCCCN1CCN(c2cncc(Cl)n2)CC1 (centres unmarked) [Example 5, 2-[4-[4-(6-Chloro-2-pyrazinyl-1-piperazinyl]butyl]octahydroo-4,7-ethano-1H-cyclobut[f]isoindole-1,3-(2H)-dione, hydrochloride, hemihydrate] | 40 (i.p.) mg/kg |  |
| O=C1C2C3C=CC(C4CC34)C2C(=O)N1CCCCN1CCN(c2ccc(Cl)nn2)CC1 (centres unmarked) [Example 9, 2-[4-[4-(6-Chloro-3-pyridazinyl)-1-piperazinyl]butyl]hexahydro-4,6-ethenocycloprop[f]isoindole-1,3-(2H,3H)-dione, hydrochloride] | 40 (i.p.) mg/kg |  |
| O=C1C2C3C=CC(C4CCC34)C2C(=O)N1CCCCN1CCN(c2nccnc2Cl)CC1 (centres unmarked) [Example 10, 2-[4-[4-(3-Chloro-2-pyrazinyl)-1-piperazinyl]butyl] octahydro-4,7-etheno-1H-cyclobut[f]isoindole-1,3(2H)--dione, dihydrochloride, hydrate] | 40 (i.p.) mg/kg |  |
| O=C1C2C3C=CC(C4C=CC43)C2C(=O)N1CCCCN1CCN(c2ccc(Cl)nn2)CC1 (centres unmarked) [Example 11, 3a,4,4a,6a,7,7a-Hexahydro-2-[4-[4-(6-chloro-3-pyridazinyl)-1-piperazinyl]butyl]4,7-etheno-1H--cyclobut[f]isoindole-1,3(2H)-dione, hydrochloride, hydrate] | 40 (i.p.) mg/kg |  |
| O=C1C2C3C=CC(C4C=CC43)C2C(=O)N1CCCCN1CCN(c2nccnc2Cl)CC1 (centres unmarked) [Example 12, 3a,4,4a,6a,7,7a-Hexahydro-2-[4-[4-(3-chloro-2-pyrazinyl-1-piperazinyl]butyl]4,7-etheno-1H-cyclobut[f]isoindole-1,3(2H)-dione, hydrochloride, dihydrate] | 40 (i.p.) mg/kg |  |
| O=C1C2C3CCCCC(CC3)C2C(=O)N1CCCCN1CCN(c2cncc(Cl)n2)CC1 (centres unmarked) [Example 14, hydrochloride, hemihydrate] | 40 (i.p.) mg/kg | Ki [3]: 0.44 µM |
| O=C1C2C3C=CC(C4CCC34)C2C(=O)N1CCCCN1CCN(c2cncc(Cl)n2)CC1 (centres unmarked) [Example 15, 2-[4-[4-(6-Chloro-2-pyrazinyl)-1-piperazinyl]butyl]-octahydro-4,7-etheno-1H-cyclobut[f]isoindol-1,3-(2H)-dione, hydrochloride] | 40 (i.p.) mg/kg | Ki [3]: 0.413 µM |
| O=C1C2C3C=CC(C3)C2C(=O)N1CCCCN1CCN(c2ccc(Cl)nn2)CC1 (centres unmarked) [Example 17, 2-[4-[4-(6-Chloro-3-pyridazinyl-1-piperazinyl]butyl]-3a,4,7,7a-tetrahydro-4,7-methano-1H-isoindole-1,3-(2H)-dione, hydrochloride, dihydrate] | 40 (i.p.) mg/kg | inhibition at 1 µM [3]: 19% |
| O=C1C2C3C=CC(C3)C2C(=O)N1CCCCN1CCN(c2nccnc2Cl)CC1 (centres unmarked) [Example 18, 2-[4-[4-(3-Chloro-2-pyrazinyl)-1-piperazinyl]butyl]-3a,4,7,7a-tetrahydro-4,7-methano-1H-isoindole-1,3-(2H)-dione, hydrochloride, 2.5 hydrate] | 40 (i.p.) mg/kg | inhibition at 1 µM [3]: 48%; ED50 ([1]; po, footnote 1 = AB50 value, read-out: Active at mg/kg (AB50 value)): 40 mg/kg |
| Cl.O.O=C1C2C3C=CC(C4CC34)C2C(=O)N1CCCCN1CCN(c2nccnc2Cl)CC1 (centres unmarked) [Example 19, 2-[4-[4-(3-Chloro-2-pyrazinyl)-1-piperazinyl]butyl]hexahydro-4,6-ethenocycloprop[f]isoindole-1,3(2H,3aH)-dione, hydrochloride, hydrate] | 40 (i.p.) mg/kg | Ki [3]: 0.054 µM |
| Cl.O.O=C1C2C3C=CC(CCCC3)C2C(=O)N1CCCCN1CCN(c2nccnc2Cl)CC1 (centres unmarked) [Example 20, 2-[4-[4-(3-Chloro-2-pyrazinyl)-1-piperazinyl]butyl]octahydro-4,9-etheno-1H-cycloocta[c]pyrrole-1,3(2H)-dione, hydrochloride, hydrate] | 40 (i.p.) mg/kg | inhibition at 1 µM [3]: 78% |
| Cl.O.O=C1C2C3C=CC(CCC3)C2C(=O)N1CCCCN1CCN(c2cncc(Cl)n2)CC1 (centres unmarked) [Example 22, 2-[4-[4-(6-Chloro-2-pyrazinyl)-1-piperazinyl]butyl]-4,5,6,7,8,8a-hexahydro-4,8-ethenocyclohepta[c]pyrrole-1,3(2H,3aH)-dione, hydrochloride, hydrate] | 40 (i.p.) mg/kg | inhibition at 1 µM [3]: 43%; ED50 ([1]; po, read-out: Active at mg/kg (AB50 value)): 68.4 mg/kg |
| Cl.O=C1C2C3CCC(C4CC43)C2C(=O)N1CCCCN1CCN(c2cncc(Cl)n2)CC1 (centres unmarked) [Example 25, 2-[4-[4-(6-Chloro-2-pyrazinyl)-1-piperazinyl]butyl]hexahydro-4,6-ethanocycloprop[f]isoindole-1,3(2H,3aH)-dione, hydrochloride] | 40 (i.p.) mg/kg | inhibition at 1 µM [3]: 49% |
| Cl.O=C1C2C3CCC(C4CC43)C2C(=O)N1CCCCN1CCN(c2nccnc2Cl)CC1 (centres unmarked) [Example 26, 2-[4-[4-(3-Chloro-2-pyrazinyl)-1-piperazinyl]butyl]hexahydro-4,6-ethanocycloprop[f]isoindole-1,3(2H,3aH)-dione, hydrochloride] | 40 (i.p.) mg/kg | inhibition at 1 µM [3]: 75% |
| Cl.Cl.O.O=C1C2C3C=CC(C4C=CC43)C2C(=O)N1CCCCN1CCN(c2ccc(C(F)(F)F)cn2)CC1 (centres unmarked) [Example 28, 3a,4,4a,6a,7,7a-Hexahydro-2-[4-[4-(5-trifluoromethyl-2-pyridinyl)-1-piperazinyl]-butyl]-4,7-etheno-1H-cyclobut[f]isoindole-1,3(2H)-dione, dihydrochloride, hydrate] | 40 (i.p.) mg/kg |  |
| Cl.Cl.O=C1C2C3CCCC(CC3)C2C(=O)N1CCCCN1CCN(c2ncccn2)CC1 (centres unmarked) [Example 29, 4,5,6,7,8,8a-Hexahydro-2-[4-[4-(2-pyrimidinyl)-1-piperazinyl]butyl]-4,8-ethanocyclohepta[c]pyrrole-1,3(2H,3aH)-dione, dihydrochloride] | 40 (i.p.) mg/kg |  |
| O=C(CCCN1CCC(O)(c2ccc(Cl)cc2)CC1)c1ccc(F)cc1 [Haloperidol, reference compound] |  | ED50 [1, 4]: 0.18 mg/kg |
| O=C(CCCN1CCC2(CC1)C(=O)NCN2c1ccccc1)c1ccc(F)cc1 [Spiperone, reference compound] |  | ED50 [1, 4]: 0.13 mg/kg |
| CSc1ccc2c(c1)N(CCC1CCCCN1C)c1ccccc1S2 (centres unmarked) [Thioridazine, reference compound] |  | ED50 [1, 4]: 8.61 mg/kg |
